System: methicillin sensitive Staphylococcus aureus (MSSA; Smith strain)
Experiment: Mouse protection model: mice infected intraperitoneally with MSSA, dosed subcutaneously
Assay type: in vivo
Details: for Number Dead: 10 mice
Method: An overnight culture of methicillin sensitive Staphylococcus aureus (“MSSA”; Smith strain) grown to stationary phase in brain heart infusion broth (BHI) was diluted 1000-fold and maintained at 37° C. in a shaking incubator. Approximately two hours later the culture was centrifuged and the pellet was washed with sterile phosphate-buffered saline (“PBS”). The washed pellet was then reconstituted in Mueller-Hinton Broth (“MHB”) to achieve the desired density of bacteria. A portion of the inoculum was plated on blood agar plates to determine colony-forming units (CFU) per milliliter.
Compound IB-1272 was formulated immediately before dosing in aqueous vehicle containing 5% dextrose. Compound IB-756 (Aspartocin) was formulated in PBS or 5% dextrose and used as a positive control.
Immunocompetent Swiss Webster Mice from Simonsen Laboratories, Gilroy, Calif., received via intraperitoneal injection a single inoculum (0.5 ml) containing an estimated 4.0×10^7 CFU of MSSA Smith strain. The day of inoculation was designated study day 0. Immediately after infection, mice were treated subcutaneously with a single dose of vehicle alone, IB-1272 (2, 4, or 8 mg/kg), IB-756 (2.5 or 5 mg/kg in PBS), or IB-756 (2.5 or 5 mg/kg in 5% dextrose).

[1] = 2.0 mg/kg s.c. single dose (5% dextrose vehicle)
[2] = 4 mg/kg s.c. single dose (5% dextrose vehicle)
[3] = 8 mg/kg s.c. single dose (5% dextrose vehicle)
[4] = Table 1, no unit or model given

CC(C)CCCCCCCC/C=C\CC(=O)N[C@@H](CC(=O)O)C(=O)N[C@@H]1C(=O)N2CCCC[C@@H]2C(=O)N[C@@H]([C@H](C)C(=O)O)C(=O)N[C@@H](CC(=O)O)C(=O)NCC(=O)N[C@@H](CC(=O)O)C(=O)NCC(=O)N[C@H]([C@@H](C)NC(=O)CN)C(=O)N[C@@H](C(C)C)C(=O)N2CCC[C@H]2C(=O)N[C@@H]1C [IB-1272, NatC15-aspartocin(Dab^9-N-glycyl)]
Percent Mortality [1]: 50% | Percent Survival [1]: 50% | Number Dead [1]: 5 | Percent Mortality [2]: 0% | Percent Survival [2]: 100% | Number Dead [2]: 0 | Percent Mortality [3]: 0% | Percent Survival [3]: 100% | Number Dead [3]: 0 | ED50 [4]: 1.8 mg/kg | ED50 (subcutaneously administered, immunocompetent mice challenged intraperitoneally with MSSA Smith strain): < 2.0 mg/kg

CC(C)CCCCCCCC/C=C\CC(=O)N[C@@H](CC(=O)O)C(=O)N[C@@H]1C(=O)N2CCCC[C@@H]2C(=O)N[C@@H]([C@H](C)C(=O)O)C(=O)N[C@@H](CC(=O)O)C(=O)NCC(=O)N[C@@H](CC(=O)O)C(=O)NCC(=O)N[C@H]([C@@H](C)NC(=O)[C@H](C)N)C(=O)N[C@@H](C(C)C)C(=O)N2CCC[C@H]2C(=O)N[C@@H]1C [IB-1275, NatC15-aspartocin(Dab^9-N-L-alanyl)]
ED50 [4]: 15.7 mg/kg

CC(C)CCCCCCCC/C=C\CC(=O)N[C@@H](CC(=O)O)C(=O)N[C@@H]1C(=O)N2CCCC[C@@H]2C(=O)N[C@@H]([C@H](C)C(=O)O)C(=O)N[C@@H](CC(=O)O)C(=O)NCC(=O)N[C@@H](CC(=O)O)C(=O)NCC(=O)N[C@H]([C@@H](C)NC(=O)[C@@H](C)N)C(=O)N[C@@H](C(C)C)C(=O)N2CCC[C@H]2C(=O)N[C@@H]1C [IB-1279, NatC15-aspartocin(Dab^9-N-D-alanyl)]
ED50 [4]: 6 mg/kg

CC(C)CCCCCCCC/C=C\CC(=O)N[C@@H](CC(=O)O)C(=O)N[C@@H]1C(=O)N2CCCC[C@@H]2C(=O)N[C@@H]([C@H](C)C(=O)O)C(=O)N[C@@H](CC(=O)O)C(=O)NCC(=O)N[C@@H](CC(=O)O)C(=O)NCC(=O)N[C@H]([C@@H](C)NC(=O)[C@@H](N)CO)C(=O)N[C@@H](C(C)C)C(=O)N2CCC[C@H]2C(=O)N[C@@H]1C [IB-1281, NatC15-aspartocin(Dab^9-N-L-seryl)]
ED50 [4]: 14.7 mg/kg
